From patent US7071341B2, “α-Glucosidase inhibitors and their synthesis from a natural source” (Council of Scientific and Industrial Research, priority 2003, dated 2006)
Entries after “also recorded” stand apart in the source; their conditions may differ.

Experiments:
yeast α-glucosidase = assay: α-glucosidase inhibitory assay by the chromogenic method; type: biochemical; conditions: for IC50: yeast α-glucosidase [Sigma], substrate p-nitrophenyl-α-D-glucopyranoside, pH 7.00, absorbance at 405 nm; for α-glucosidase inhibitory potency compared with the standard drug 1-deoxy nojirimycin: comparison in words
Method: The α-glucosidase inhibitory assay was done by the chromogenic method. In brief 10 μl of test compounds dissolved in DMSO (5 mg/ml and subsequent dilutions) were incubated for 5 min. with 50 μl of yeast α-glucosidase [Sigma] enzyme prepared in 100 mM phosphate buffer (pH 7.00). After 5 minutes of incubation, 50 μl of 5 mM substrate (p-nitrophenyl-α-D-glucopyranoside [Sigma] prepared in the same buffer) was added. The pre-substrate and 5-min post-substrate addition absorbances were recorded at 405 nm spectrophotometrically. The increase in absorbance from pre-substrates addition to post substrates reaction were obtained.

| SMILES | IC50 (yeast α-glucosidase) [µM] | melting point [°C] | also measured |
| --- | --- | --- | --- |
| Oc1ccc(C2Oc3c(ccc(O)c3O)CC2O)cc1O (single isomer, unassigned; (-)) [Compound 1, (−)-mesquitol] | 82.3 | 252 | α-glucosidase inhibitory activity, in words (yeast α-glucosidase): potent α-glucosidase inhibitory activity |
| O=C(OC1Cc2ccc(O)c(O)c2OC1c1ccc(O)c(O)c1)c1ccccc1Cl (single isomer, unassigned; (-)) [Compound 4I, (−)-3-O-(o-chlorobenzoyl) mesquitol] | 43.3 | 252 |  |
| CC(=O)OC1Cc2ccc(O)c(O)c2OC1c1ccc(O)c(O)c1 (single isomer, unassigned; (-)) [Compound 4a, (−)-3-O-acetyl mesquitol] | 46.3 | 78 |  |
| CCCC(=O)OC1Cc2ccc(O)c(O)c2OC1c1ccc(O)c(O)c1 (single isomer, unassigned; (-)) [Compound 4b, (−)-3-O-butyryl mesquitol] | 46.2 | 80 |  |
| CCCCCC(=O)OC1Cc2ccc(O)c(O)c2OC1c1ccc(O)c(O)c1 (single isomer, unassigned; (-)) [Compound 4c, (−)-3-O-hexanoyl mesquitol] | 49.3 | 81 |  |
| CCCCCCCCCCCCCC(=O)OC1Cc2ccc(O)c(O)c2OC1c1ccc(O)c(O)c1 (single isomer, unassigned; (-)) [Compound 4e, (−)-3-O-myristoyl mesquitol] | 12.6 | 83 | α-glucosidase inhibitory potency compared with the standard drug 1-deoxy nojirimycin (yeast α-glucosidase; listed as myristoyl ester of (−) mesquitol): more potent α-glucosidase inhibitors than the standard drug 1-deoxy nojirimycin; also recorded: more potent than the standard α-glucosidase inhibitor 1-deoxy nojirimycin |
| CCCCCCCCCCCCCCCC(=O)OC1Cc2ccc(O)c(O)c2OC1c1ccc(O)c(O)c1 (single isomer, unassigned; (-)) [Compound 4f, (−)-3-O-Palmitoyl mesquitol] | 9.56 | 87 | α-glucosidase inhibitory potency compared with the standard drug 1-deoxy nojirimycin (yeast α-glucosidase; listed as palmitoyl ester of (−) mesquitol): more potent α-glucosidase inhibitors than the standard drug 1-deoxy nojirimycin; also recorded: more potent than the standard α-glucosidase inhibitor 1-deoxy nojirimycin |
| CCCCCCCCCCCCCCCCCC(=O)OC1Cc2ccc(O)c(O)c2OC1c1ccc(O)c(O)c1 (single isomer, unassigned; (-)) [Compound 4g, (−)-3-O-Steroyl mesquitol] | 54.5 | 90 |  |
| O=C(OC1Cc2ccc(O)c(O)c2OC1c1ccc(O)c(O)c1)c1ccccc1 (single isomer, unassigned; (-)) [Compound 4h, (−)-3-O-benzoyl mesquitol] | 77.8 | 248 | α-glucosidase inhibitory potency compared with the standard drug 1-deoxy nojirimycin (yeast α-glucosidase; listed as benzoyl ester of (−) mesquitol): more potent α-glucosidase inhibitor than the standard drug 1-deoxy nojirimycin |
| COc1ccc(C(=O)OC2Cc3ccc(O)c(O)c3OC2c2ccc(O)c(O)c2)cc1 (single isomer, unassigned; (-)) [Compound 4j, (−)-3-O-(p-methoxybenzoyl) mesquitol] | 67.3 | 254 |  |
| CCCCCCCCCC(=O)O[C@H]1Cc2ccc(O)c(O)c2O[C@@H]1c1ccc(O)c(O)c1 [Compound 4d, (−)-3-O-Decanoyl mesquitol] | 13.5 |  | α-glucosidase inhibitory potency compared with the standard drug 1-deoxy nojirimycin (yeast α-glucosidase; listed as decanoyl ester of (−) mesquitol): more potent α-glucosidase inhibitors than the standard drug 1-deoxy nojirimycin; also recorded: more potent than the standard α-glucosidase inhibitor 1-deoxy nojirimycin |
| O=C(O[C@H]1Cc2ccc(O)c(O)c2O[C@@H]1c1ccc(O)c(O)c1)c1ccc(F)cc1 [Compound 4k, (−)-3-O-(p-flourobenzoyl) mesquitol] | 32.8 |  | α-glucosidase inhibitory potency compared with the standard drug 1-deoxy nojirimycin (yeast α-glucosidase; listed as p-flourobenzyl ester of (−) mesquitol): more potent α-glucosidase inhibitor than the standard drug 1-deoxy nojirimycin |
